Source: patent publication US20070072939A1, “Cannabinoid active pharmaceutical ingredient for improved dosage forms” (Euro-Celtique, S.A., priority 2005, published 2007)

Key:
[1] = sufficiently purified trans-(+)-Δ^9-THC; cited from earlier work
[2] = delivery by inhalation (e.g., by smoking); cited from earlier work
[3] = purified resinous material, background statement; cited from earlier work
[4] = stability of the substance to air, light and temperature (appearance)

CCCCCc1cc(O)c2c(c1)OC(C)(C)[C@H]1CCC(C)=C[C@H]21 [trans-(+)-Δ^9-THC, trans-(+)-Δ^9-tetrahydrocannabinol]
activity relative to the trans-(−)-Δ^9-THC enantiomer [1]: ~1%

CCCCCc1cc(O)c2c(c1)OC(C)(C)[C@@H]1CCC(C)=C[C@@H]21 [trans-(−)-Δ^9-THC, (−)-6a, 10a-trans-Δ^9-tetrahydrocannabinol]
onset of pharmacological activity [2]: ≤ 10 minutes
chemical stability to light, oxygen and heat [3]: chemically unstable to light, oxygen, and heat

trans-(±)-Δ^9-tetrahydrocannabinol [crystalline trans-(±)-Δ^9-THC]
stability ([4]; 25° C. in the presence of air and laboratory lighting, Example 12 material): stable
retention of white appearance ([4]; 25° C., Example 10 material, expected): retain that white appearance for at least three days
appearance after storage ([4]; held for three days at room temperature in the presence of air and laboratory lighting): remained white
